Where “and” joins values, the source holds several entries; their conditions need not be identical. Equal entries are not always repeated.
Legend:
[1] = system: IFN-stimulated response elements (ISRE) in THP-1 cells; assay: THP-1 ISRE luciferase reporter, IFNα2 stimulation; assay type: cell-based, human; conditions: IFN + compound; replicate values
Method: THP-1 in vitro experiments
THP-1-DualTM cells (InvivoGen), derived from a human monocytic cell line, isolated from a patient with acute monocytic leukaemia, were cultured as per manufacturer’s guidance. Cells were seeded at 1x10^6 cells/mL in RPMI1640 media containing 10% fetal bovine serum (FBS), 1% penicillin-streptomycin (PS) (Gibco Laboratories) with DMSO (0.1%) (control) or in media containing JMS-175- […]
ng/mL) (Merck Life Science), ODN 2216 (1 µM) (Miltenyi Biotec), or Poly:IC (1 µg/mL) (InvivoGen).
Tofacitinib (Cambridge Biosciences) at 0.4 µM was used for comparison against a known JAK inhibitor.
Cells were centrifuged at 300 g for 5 minutes. Supernatant was removed and subjected to simultaneous study of the NF -κB pathway, by monitoring the activity of secreted alkaline phosphatase reporter (SEAP), and the IRF pathway, by assessing the activity o f a secreted Lucia luciferase using QUANTI - Blue ™ Solution and QUANTI -Luc™ 4 Lucia/Gaussia (InvivoGen), respectively, as per manufacturer’s instructions. Pelleted cells were used for FACS analysis using IFNα/β R1 APC-conjugated antibody or isotype control (Biotechne, FAB245A and IC002A), or unstained staining procedure with and without Zombie GreenTM (Biolegend). Samples were analysed using CytoFlex LX (Beckman) (50,000 live cells per condition). Median fluorescence intensity for APC channel gated on single cell live cells was analysed and compared as a percentage to control (no stimulation condition). […]

[2] = system: IFNAR1 ubiquitylation in MCF10A cells; assay: TUBE pull-down of ubiquitylated IFNAR1 in MCF10A cells; assay type: cell-based, human; design: Blot Mean, Background substracted: unit not given here; conditions: for IFNAR1 ubiquitylation: MCF10A, IFNα2 50 ng/mL, 5 µM, compared to DMSO, AP-5-145 and FX-171-A
Method: Tandem ubiquitin binding entity (TUBE) pull -down assay
The TUBE pull -down experiment was performed according to the manufacturer’s (UM401: TUBE 1 Agarose; LifeSensors) protocol with modifications. MCF10A cells (~20 x10 6) were pre -treated with the […] inhibitor panel (5 µM) or DMSO vehicle control for 1 hour followed by addition of recombinant IFNα2 (50 ng/m L, 592702, BioLegend). Following 1 hour incubation with IFNα2, cells were lysed in cell lysis buffer (50 mM Tris -HCl, pH 7.5, 0.15 M NaCl, 1 mM EDTA, 1% NP -40, 10% glycerol, 10 mM […]
NEM). Cell lysates were clarified by centrifugation at 15,000 g for 10 minutes at 4 °C. Clarified lysates were pre-cleared with control uncoupled agarose beads (UM400, LifeSensors) for 30 minutes on a rotator at 4 °C followed by centrifugation at 5,000 g for 2 minutes. Equal amount of pre-cleared lysates from individual samples were incubated with 20 µL Agarose-TUBE beads (pre-equilibrated with 1X Tris-buffered saline (TBS)) overnight on a rotator at 4 °C. Beads were collected by centrifugation at 5,000 g for 2 minutes at RT followed by four stringent washes with 1X TBST (TBS, 0.1% Tween-20). TUBE-pulldown proteins were eluted by boiling Agarose-TUBE beads in 2X LDS sample buffer supplemented with […] DTT for 15 minutes. Eluted proteins were resolved on NuPAGE™ 4–12% Bis–Tris gel followed by Western blotting using anti-IFNAR1 antibody (ab124764, Abcam).
PBMCs in vitro experiments
Peripheral blood mononuclear cells (PBMCs) from healthy and SSc donors were separated using density gradient method (Leucosep™, Greiner Bio-One International) from EDTA anticoagulated peripheral blood; isolated cells were washed twice by PBS. PBMCs were then incubated in RPMI1640 […]
For healthy PBMCs, cells were stimulated with 20 ng/mL of IFN (+/- compounds or DMSO). For SSc PBMCs, cells were in basal conditions with no additional IFN stimulation. Cells were centrifuged at 300 g for 10 minutes. Supernatant was removed and subjected to R&D Systems DY266 Human CXCL10/IP-10 DuoSet ELISA (Biotechne) in duplicates, according to manufacturer’s guidance. Concentration of CXCL10 was determined according to a 4-parameter logistic regression standard curve. RNA was extracted from cell pellets using TRIzol™ (ThermoFisher Scientific, Waltham, MA) and processed using Quick-RNA Miniprep Kit (Zymo Research) as per the manufacturer’s instruction.
For Type I IFN signalling analysis, the human IFN I RT2 Profiler PCR Array (Qiagen, PAMM-016ZE) was performed on available RNA from healthy (n=3) and SSc (n=9) donors. RNA was converted to cDNA using RT2 First Strand Kit (Qiagen). Next, the cDNA was mixed with RT2 SYBR Green Mastermix (Qiagen, Venlo). Successful PCR performance was confirmed by assay tests for genomic DNA contamination, RNA sample quality, as well as single melt curve determination and <35 Ct for each gene, leading to validated gene expression of 67 genes. Relative expression for each gene was determined, firstly by ∆CT calculated using the geometric mean of 4 housekeeping genes (ACTB, GAPDH, HPRT1, RPLP0), followed by 2^(-∆CT), and expressed as fold change to control, according to manufacturer’s guidance. IFN2α-induced ISGs in healthy donors were determined using a Student’s t-test (two-tail distribution and equal variances) on the triplicate fold change in 2^(-ΔCT) values between […]
donors). Heatmaps were generated using the “pheatmap” function in R (v4.0.2) and RStudio (v1.3.1093) applying row scaling to standardise the expression data across samples (R core team 2020.
R Foundation for Statistical Computing). The IFN2α inducible genes determined in healthy donors […]
171-C. To account for Type I IFN signalling heterogeneity across samples, the mean 2^(-∆CT) for each […]
relative gene expression, illustrated as a fold change and visualised in log2. The Type I IFN signalling array data for the patient samples is included in Source Data Figure 6, Extended Data Fig. 9.

[3] = TUBE pull-down IFNAR1 blot densitometry, biological replicates 1-3

| SMILES | ISRE luciferase reporter signal (Fig. 5a) [1] | Fold Change ([2]; TUBE pull-down IFNAR1 blot densitometry, relative to DMSO = 1, biological replicates 1-3) | Blot Mean, Background substracted [2, 3] | IFNAR1 ubiquitylation [2] |
| --- | --- | --- | --- | --- |
| Cn1cc(NC(=O)c2c(Cl)cccc2Cl)c(C(=O)NC2CCN(C(=O)c3c(Cl)cccc3Cl)CC2)n1 [AP-5-145] | 5071.67 and 5115.33 and 6389 and 6090.67 | 1.205 and 1.413 and 1.158 | 48.742 and 43.008 and 72.446 | – |
| O=C(NC1C2CNCC21)c1nn(C(=O)c2c(Cl)cccc2Cl)cc1NC(=O)c1c(Cl)cccc1Cl (stereo not drawn) [FX-171-C] | 3973.33 and 4177.33 and 5441.67 and 5023.67 | – | 52.149 and 49.341 and 95.856 | elevated levels of IFNAR1 ubiquitylation |
| O=C(NC1CCNCC1)c1nn(C(=O)c2c(Cl)cccc2Cl)cc1NC(=O)c1c(Cl)cccc1Cl [JMS-175-2] | 2914 and 3263.67 and 4737.67 and 4742.67 | – | 63.299 and 57.607 and 102.609 | elevated levels of IFNAR1 ubiquitylation |
